Literature values as cited in patent publication US20200147194A1, “PEPTIDE VACCINE AND PEPTIDE VACCINE COMPOSITION FOR CRANIAL NERVE DISEASE” (KEIO UNIVERSITY, priority 2017, published 2020).

Test system: pre-alteration peptides (SEQ ID NO:12)

## SEQ ID NO:16: SEQ ID NO:12 with leucine substituted for the second amino acid from the N-terminus; HLA-A*02:01-binding, VEGFR-2 (VLAMFFWLL; modified peptide)
  CTLs induced by stimulation by the peptide: recognition of pre-alteration peptides (SEQ ID NO:12): able recognize and damage
